Experimental data taken from US11395857B2, “Radiolabeled melanocortin 1 receptor-specific alpha-melanocyte-stimulating hormone analogues for imaging or therapy” (PROVINCIAL HEALTH SERVICES AUTHORITY, priority 2018, dated 2022).
Like-named read-outs stand apart in the source and are kept apart here.

Key:
B16F10 mouse melanoma = test: Biodistribution of 177Lu-labeled αMSH analogues in mice bearing B16F10 mouse melanoma; assay type: in vivo, C57BL/6J mice; conditions: C57BL/6J mice, B16F10 melanoma
Experimental: (§1) The B16-F10 mouse melanoma cells were cultured and inoculated in mice as described in Example 1.
(§2) For biodistribution studies, approximately 1-2 MBq of ^177Lu-labeled αMSH analogues via tail vein under anesthesia. At 1, 4, 24, and 120 h p.i., the mice were euthanized by CO2 inhalation. Organs/tissues were harvested and the radioactivity was measured as described in Example 1.

[1] = as above; assay type: in vivo, C57BL/6J mice; conditions: mouse, iv, total radioactivity, C57BL/6J mice, B16F10 melanoma
Experimental: as §1, §2

SMILES: CCCC[C@H](NC(=O)CN1CCC(NC(=O)CN2CCN(CC(=O)O)CCN(CC(=O)O)CCN(CC(=O)O)CC2)CC1)C(=O)N[C@H]1CC(=O)NCCCC[C@@H](C(N)=O)N(C)C(=O)[C@H](Cc2c[nH]c3ccccc23)NC(=O)[C@H](CCCNC(=N)N)N(C)C(=O)[C@@H](Cc2ccccc2)NC(=O)[C@H](Cc2c[nH]cn2)NC1=O [^177Lu-labeled CCZ01106, metal not drawn]
- Biodistribution, B16F10 tumour (B16F10 mouse melanoma; 1 h p.i.): 8.25 ± 1.94 % ID/g
- Biodistribution, B16F10 tumour (B16F10 mouse melanoma; 4 h p.i.): 7.81 ± 2.16 % ID/g
- Biodistribution, B16F10 tumour (B16F10 mouse melanoma; 24 h p.i.): 3.45 ± 0.30 % ID/g
- Biodistribution, B16F10 tumour (B16F10 mouse melanoma; 120 h p.i.): 0.49 ± 0.36 % ID/g
- Biodistribution, Blood (B16F10 mouse melanoma; 120 h p.i.): 0.00 ± 0.00 % ID/g
- Biodistribution, Brain (B16F10 mouse melanoma; 120 h p.i.): 0.00 ± 0.00 % ID/g
- Biodistribution, Fat (B16F10 mouse melanoma; 120 h p.i.): 0.00 ± 0.00 % ID/g
- Biodistribution, Muscle (B16F10 mouse melanoma; 120 h p.i.): 0.00 ± 0.00 % ID/g
- tissue uptake at 1 h ([1]; male, seminal glands, 1 h p.i., read-out: Biodistribution, Seminal glands): 0.22 ± 0.35 %ID/g
- tissue uptake at 4 h ([1]; male, seminal glands, 4 h p.i., read-out: Biodistribution, Seminal glands): 0.02 %ID/g
- tissue uptake at 24 h ([1]; male, seminal glands, 24 h p.i., read-out: Biodistribution, Seminal glands): 0.01 %ID/g
- tissue uptake at 120 h ([1]; male, seminal glands, 120 h p.i., read-out: Biodistribution, Seminal glands): 0.01 ± 0.01 %ID/g
- tissue uptake at 1 h ([1]; male, testes, 1 h p.i., read-out: Biodistribution, Testes): 0.17 ± 0.06 %ID/g
- tissue uptake at 4 h ([1]; male, testes, 4 h p.i., read-out: Biodistribution, Testes): 0.04 %ID/g
- tissue uptake at 24 h ([1]; male, testes, 24 h p.i., read-out: Biodistribution, Testes): 0.03 %ID/g
- tissue uptake at 120 h ([1]; male, testes, 120 h p.i., read-out: Biodistribution, Testes): 0.02 %ID/g
- tissue uptake at 1 h ([1]; adrenal glands, 1 h p.i., read-out: Biodistribution, Adrenal glands): 0.54 ± 0.28 %ID/g
- tissue uptake at 4 h ([1]; adrenal glands, 4 h p.i., read-out: Biodistribution, Adrenal glands): 0.13 ± 0.06 %ID/g
- tissue uptake at 24 h ([1]; adrenal glands, 24 h p.i., read-out: Biodistribution, Adrenal glands): 0.23 ± 0.18 %ID/g
- tissue uptake at 120 h ([1]; adrenal glands, 120 h p.i., read-out: Biodistribution, Adrenal glands): 0.02 ± 0.02 %ID/g
- tissue uptake at 1 h ([1]; blood, 1 h p.i., read-out: Biodistribution, Blood): 0.49 ± 0.22 %ID/g
- tissue uptake at 4 h ([1]; blood, 4 h p.i., read-out: Biodistribution, Blood): 0.02 %ID/g
- tissue uptake at 24 h ([1]; blood, 24 h p.i., read-out: Biodistribution, Blood): 0.01 %ID/g
- tissue uptake at 1 h ([1]; bone, 1 h p.i., read-out: Biodistribution, Bone): 0.18 ± 0.04 %ID/g
- tissue uptake at 4 h ([1]; bone, 4 h p.i., read-out: Biodistribution, Bone): 0.07 ± 0.02 %ID/g
- tissue uptake at 24 h ([1]; bone, 24 h p.i., read-out: Biodistribution, Bone): 0.06 ± 0.01 %ID/g
- tissue uptake at 120 h ([1]; bone, 120 h p.i., read-out: Biodistribution, Bone): 0.04 ± 0.01 %ID/g
- tissue uptake at 1 h ([1]; brain, 1 h p.i., read-out: Biodistribution, Brain): 0.02 %ID/g
- tissue uptake at 4 h ([1]; brain, 4 h p.i., read-out: Biodistribution, Brain): 0.01 %ID/g
- tissue uptake at 24 h ([1]; brain, 24 h p.i., read-out: Biodistribution, Brain): 0.01 %ID/g
- tissue uptake at 1 h ([1]; fat, 1 h p.i., read-out: Biodistribution, Fat): 0.05 ± 0.02 %ID/g
- tissue uptake at 4 h ([1]; fat, 4 h p.i., read-out: Biodistribution, Fat): 0.01 ± 0.01 %ID/g
- tissue uptake at 24 h ([1]; fat, 24 h p.i., read-out: Biodistribution, Fat): 0.01 %ID/g
- tissue uptake at 1 h ([1]; heart, 1 h p.i., read-out: Biodistribution, Heart): 0.19 ± 0.07 %ID/g
- tissue uptake at 4 h ([1]; heart, 4 h p.i., read-out: Biodistribution, Heart): 0.03 %ID/g
- tissue uptake at 24 h ([1]; heart, 24 h p.i., read-out: Biodistribution, Heart): 0.02 %ID/g
- tissue uptake at 120 h ([1]; heart, 120 h p.i., read-out: Biodistribution, Heart): 0.01 %ID/g
- tissue uptake at 1 h ([1]; intestine, 1 h p.i., read-out: Biodistribution, Intestine): 0.45 ± 0.2 %ID/g
- tissue uptake at 4 h ([1]; intestine, 4 h p.i., read-out: Biodistribution, Intestine): 0.11 ± 0.06 %ID/g
- tissue uptake at 24 h ([1]; intestine, 24 h p.i., read-out: Biodistribution, Intestine): 0.13 ± 0.04 %ID/g
- tissue uptake at 120 h ([1]; intestine, 120 h p.i., read-out: Biodistribution, Intestine): 0.06 ± 0.07 %ID/g
- tissue uptake at 1 h ([1]; kidneys, 1 h p.i., read-out: Biodistribution, Kidneys): 4.79 ± 0.92 %ID/g
- tissue uptake at 4 h ([1]; kidneys, 4 h p.i., read-out: Biodistribution, Kidneys): 3.31 ± 0.66 %ID/g
- tissue uptake at 24 h ([1]; kidneys, 24 h p.i., read-out: Biodistribution, Kidneys): 1.24 ± 0.46 %ID/g
- tissue uptake at 120 h ([1]; kidneys, 120 h p.i., read-out: Biodistribution, Kidneys): 0.36 ± 0.05 %ID/g
- tissue uptake at 1 h ([1]; liver, 1 h p.i., read-out: Biodistribution, Liver): 0.88 ± 0.16 %ID/g
- tissue uptake at 4 h ([1]; liver, 4 h p.i., read-out: Biodistribution, Liver): 0.81 ± 0.08 %ID/g
- tissue uptake at 24 h ([1]; liver, 24 h p.i., read-out: Biodistribution, Liver): 0.58 ± 0.14 %ID/g
- tissue uptake at 120 h ([1]; liver, 120 h p.i., read-out: Biodistribution, Liver): 0.34 ± 0.03 %ID/g
- tissue uptake at 1 h ([1]; lungs, 1 h p.i., read-out: Biodistribution, Lungs): 0.6 ± 0.19 %ID/g
- tissue uptake at 4 h ([1]; lungs, 4 h p.i., read-out: Biodistribution, Lungs): 0.14 ± 0.04 %ID/g
- tissue uptake at 24 h ([1]; lungs, 24 h p.i., read-out: Biodistribution, Lungs): 0.06 ± 0.02 %ID/g
- tissue uptake at 120 h ([1]; lungs, 120 h p.i., read-out: Biodistribution, Lungs): 0.01 ± 0.01 %ID/g
- tissue uptake at 1 h ([1]; muscle, 1 h p.i., read-out: Biodistribution, Muscle): 0.12 ± 0.05 %ID/g
- tissue uptake at 4 h ([1]; muscle, 4 h p.i., read-out: Biodistribution, Muscle): 0.02 ± 0.01 %ID/g
- tissue uptake at 24 h ([1]; muscle, 24 h p.i., read-out: Biodistribution, Muscle): 0.01 ± 0.01 %ID/g
- tissue uptake at 1 h ([1]; pancreas, 1 h p.i., read-out: Biodistribution, Pancreas): 0.15 ± 0.05 %ID/g
- tissue uptake at 4 h ([1]; pancreas, 4 h p.i., read-out: Biodistribution, Pancreas): 0.03 %ID/g
- tissue uptake at 24 h ([1]; pancreas, 24 h p.i., read-out: Biodistribution, Pancreas): 0.03 ± 0.01 %ID/g
- tissue uptake at 120 h ([1]; pancreas, 120 h p.i., read-out: Biodistribution, Pancreas): 0.01 %ID/g
- tissue uptake at 1 h ([1]; spleen, 1 h p.i., read-out: Biodistribution, Spleen): 0.38 ± 0.11 %ID/g
- tissue uptake at 4 h ([1]; spleen, 4 h p.i., read-out: Biodistribution, Spleen): 0.24 ± 0.03 %ID/g
- tissue uptake at 24 h ([1]; spleen, 24 h p.i., read-out: Biodistribution, Spleen): 0.2 ± 0.04 %ID/g
- tissue uptake at 120 h ([1]; spleen, 120 h p.i., read-out: Biodistribution, Spleen): 0.11 ± 0.01 %ID/g
- tissue uptake at 1 h ([1]; stomach, 1 h p.i., read-out: Biodistribution, Stomach): 0.36 ± 0.22 %ID/g
- tissue uptake at 4 h ([1]; stomach, 4 h p.i., read-out: Biodistribution, Stomach): 0.11 ± 0.02 %ID/g
- tissue uptake at 24 h ([1]; stomach, 24 h p.i., read-out: Biodistribution, Stomach): 0.42 ± 0.18 %ID/g
- tissue uptake at 120 h ([1]; stomach, 120 h p.i., read-out: Biodistribution, Stomach): 0.1 ± 0.08 %ID/g
- tissue uptake at 1 h ([1]; thyroid, 1 h p.i., read-out: Biodistribution, Thyroid): 0.43 ± 0.11 %ID/g
- tissue uptake at 4 h ([1]; thyroid, 4 h p.i., read-out: Biodistribution, Thyroid): 0.27 ± 0.06 %ID/g
- tissue uptake at 24 h ([1]; thyroid, 24 h p.i., read-out: Biodistribution, Thyroid): 0.17 ± 0.01 %ID/g
- tissue uptake at 120 h ([1]; thyroid, 120 h p.i., read-out: Biodistribution, Thyroid): 0.05 ± 0.02 %ID/g
- tissue to tissue ratio at 1 h ([1]; tumour/blood, 1 h p.i., read-out: Tumour/blood): 19.2 ± 8.25
- tissue to tissue ratio at 4 h ([1]; tumour/blood, 4 h p.i., read-out: Tumour/blood): 414 ± 59
- tissue to tissue ratio at 24 h ([1]; tumour/blood, 24 h p.i., read-out: Tumour/blood): 652 ± 101
- tissue to tissue ratio at 120 h ([1]; tumour/blood, 120 h p.i., read-out: Tumour/blood): 466 ± 382
- tissue to tissue ratio at 1 h ([1]; tumour/kidney, 1 h p.i., read-out: Tumour/kidney): 1.75 ± 0.47
- tissue to tissue ratio at 4 h ([1]; tumour/kidney, 4 h p.i., read-out: Tumour/kidney): 2.46 ± 0.87
- tissue to tissue ratio at 24 h ([1]; tumour/kidney, 24 h p.i., read-out: Tumour/kidney): 3.08 ± 1.05
- tissue to tissue ratio at 120 h ([1]; tumour/kidney, 120 h p.i., read-out: Tumour/kidney): 1.44 ± 1.14
- tissue to tissue ratio at 1 h ([1]; tumour/muscle, 1 h p.i., read-out: Tumour/muscle): 75 ± 29.8
- tissue to tissue ratio at 4 h ([1]; tumour/muscle, 4 h p.i., read-out: Tumour/muscle): 452 ± 158
- tissue to tissue ratio at 24 h ([1]; tumour/muscle, 24 h p.i., read-out: Tumour/muscle): 320 ± 91.8
- tissue to tissue ratio at 120 h ([1]; tumour/muscle, 120 h p.i., read-out: Tumour/muscle): 117 ± 92.2
- excreta dose per gram or mL at 1 h ([1]; urine, 1 h p.i.): 222 ± 81.1 %ID/g
- excreta dose per gram or mL at 4 h ([1]; urine, 4 h p.i.): 19.3 ± 4.21 %ID/g
- excreta dose per gram or mL at 24 h ([1]; urine, 24 h p.i.): 0.94 ± 0.48 %ID/g
- excreta dose per gram or mL at 120 h ([1]; urine, 120 h p.i.): 0.15 ± 0.07 %ID/g
